Reference: paper PMC10344917, “Affinity and cooperativity modulate ternary complex formation to drive targeted protein degradation” (Nature Communications, 2023)

Key:
[1] = molecular target: T1, VBC / SMARCA2^BD ternary complex (Homo sapiens, UniProt P40337+P51531); assay: SPR ternary complex binding, VBC surface with preformed PROTAC/SMARCA2 bromodomain complex; conditions: for Kd: SPR, VHL, PROTAC, error SEM, N = 3, read-out: KLPT (ternary complex binding affinity)
T1 construct: VHL (54-213), ElonginB (17-112) ElonginC (1-104); SMARCA2^BD 1373–1511 ∆1400–1417; His6 (N, cleaved yes); made in house
T1 sequence (P40337 54-213): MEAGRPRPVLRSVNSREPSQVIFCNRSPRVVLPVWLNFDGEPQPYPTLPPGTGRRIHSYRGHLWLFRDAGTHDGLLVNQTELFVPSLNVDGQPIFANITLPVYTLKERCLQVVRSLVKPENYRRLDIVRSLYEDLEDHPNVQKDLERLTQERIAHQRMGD
T1 sequence (P51531 other isoform, or with tags, fused parts or gaps): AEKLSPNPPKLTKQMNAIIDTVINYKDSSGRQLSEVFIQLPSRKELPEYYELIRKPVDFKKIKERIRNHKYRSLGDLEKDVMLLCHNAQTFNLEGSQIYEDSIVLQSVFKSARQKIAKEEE
T1 sequence (Q15370 1-104, further chain): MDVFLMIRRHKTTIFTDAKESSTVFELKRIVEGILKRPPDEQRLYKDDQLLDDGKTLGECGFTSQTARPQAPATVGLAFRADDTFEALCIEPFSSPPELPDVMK
T1 sequence (Q15369 17-112, further chain): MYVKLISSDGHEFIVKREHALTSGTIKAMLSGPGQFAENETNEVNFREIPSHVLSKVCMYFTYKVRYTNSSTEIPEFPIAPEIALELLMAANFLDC
Experimental: SPR experiments were performed on a Biacore 8 K or T200 instrument (Cytiva). […] The running buffer during immobilization was PBS with 0.005% P20. Either high-density (3000-4000 RU) or low-density (300-400 RU) VBC-functionalized surfaces were created, followed by equilibration in the running buffer for 3 h.
PROTACs (10 mM in 100% DMSO) were initially prepared at 200 nM in a running buffer (20 mM Tris pH 8.0, 250 mM NaCl, 1 mM TCEP, 0.01% P20, 0.2 mg/ml BSA) with a concentration of 2% DMSO. This solution was mixed at 1:1 ratio with a solution of 5 μM of the SMARCA2 or BRD4 bromodomain protein in the running buffer. This complex was then serially diluted in the running buffer containing 2.5 μM SMARCA2 or BRD4 and 2% DMSO (5-point five-fold serial dilution). For ternary experiments, solutions were injected sequentially in single-cycle kinetic format without regeneration (contact time 60 s, flow rate 80 μL/min, dissociation time 300 s) using a stabilization period of 60 s and syringe wash (50% DMSO) between injections onto a low-density VBC-functionalized surface.
Raw sensorgrams were processed by performing double reference subtraction, solvent correction, and analysis was done using Biacore Insight Evaluation Software. Kinetic analysis was performed by fitting data to a 1:1 Langmuir interaction model and a steady-state affinity model was used to evaluate equilibrium binding affinity.

SMARCA2 = molecular target: T2, SMARCA2 (Homo sapiens, UniProt P51531); assay: SMARCA2 degradation time course in A375 cells (MSD); type: cell-based; conditions: single concentration at or near maximal activity
T2 construct: endogenous in cells; host or cells: A375
T2 sequence (P51531 whole entry): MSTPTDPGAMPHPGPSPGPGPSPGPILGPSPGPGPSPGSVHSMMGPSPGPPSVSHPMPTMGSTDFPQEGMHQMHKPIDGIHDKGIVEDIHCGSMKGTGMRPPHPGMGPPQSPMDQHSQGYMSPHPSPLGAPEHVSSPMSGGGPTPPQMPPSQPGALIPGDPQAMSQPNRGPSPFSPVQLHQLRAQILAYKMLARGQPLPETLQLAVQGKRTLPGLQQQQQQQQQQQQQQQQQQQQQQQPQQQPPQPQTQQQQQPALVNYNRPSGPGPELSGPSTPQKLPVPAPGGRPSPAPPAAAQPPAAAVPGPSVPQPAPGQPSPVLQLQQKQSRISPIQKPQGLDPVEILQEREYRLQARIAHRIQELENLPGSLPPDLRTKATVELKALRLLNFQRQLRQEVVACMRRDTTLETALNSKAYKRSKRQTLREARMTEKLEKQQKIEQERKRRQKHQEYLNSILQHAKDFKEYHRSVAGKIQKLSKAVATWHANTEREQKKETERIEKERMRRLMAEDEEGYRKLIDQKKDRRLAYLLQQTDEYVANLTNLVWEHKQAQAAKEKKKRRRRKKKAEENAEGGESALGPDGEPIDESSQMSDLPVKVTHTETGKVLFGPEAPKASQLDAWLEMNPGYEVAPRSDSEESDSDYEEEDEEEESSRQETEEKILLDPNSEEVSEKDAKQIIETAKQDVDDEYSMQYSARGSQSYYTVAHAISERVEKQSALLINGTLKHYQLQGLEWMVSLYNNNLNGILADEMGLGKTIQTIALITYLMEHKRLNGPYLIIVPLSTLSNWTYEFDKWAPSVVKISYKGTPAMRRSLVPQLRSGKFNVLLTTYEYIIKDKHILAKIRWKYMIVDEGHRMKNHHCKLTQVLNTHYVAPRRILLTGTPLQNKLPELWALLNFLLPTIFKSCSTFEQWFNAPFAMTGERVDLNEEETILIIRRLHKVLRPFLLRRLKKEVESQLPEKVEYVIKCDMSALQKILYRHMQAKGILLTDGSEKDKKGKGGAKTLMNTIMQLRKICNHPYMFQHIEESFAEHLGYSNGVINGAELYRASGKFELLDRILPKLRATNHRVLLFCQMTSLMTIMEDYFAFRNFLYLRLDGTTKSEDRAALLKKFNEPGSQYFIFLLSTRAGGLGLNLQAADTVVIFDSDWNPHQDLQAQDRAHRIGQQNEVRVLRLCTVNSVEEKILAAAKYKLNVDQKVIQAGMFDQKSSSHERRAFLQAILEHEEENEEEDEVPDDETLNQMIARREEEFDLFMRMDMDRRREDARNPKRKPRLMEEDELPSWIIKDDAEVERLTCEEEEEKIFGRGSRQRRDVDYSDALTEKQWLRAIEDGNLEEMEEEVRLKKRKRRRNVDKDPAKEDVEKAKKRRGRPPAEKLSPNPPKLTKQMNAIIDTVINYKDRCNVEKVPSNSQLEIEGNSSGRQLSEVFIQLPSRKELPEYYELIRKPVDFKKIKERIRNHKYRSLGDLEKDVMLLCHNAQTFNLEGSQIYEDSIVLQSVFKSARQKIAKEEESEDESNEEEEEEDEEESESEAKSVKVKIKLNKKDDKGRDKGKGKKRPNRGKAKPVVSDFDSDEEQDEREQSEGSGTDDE
From the text: This characteristic has been described as cooperativity (α > 1) and likely results from favorable PPIs present in the ternary complex. […] To measure the rate of protein degradation, we treated A375 cells with a single concentration of each PROTAC and measured the decrease in target abundance over time as shown in Figs. 4b and5b.
MSD electrochemiluminescence signals were subtracted by the average background signal from wells with lysis buffer alone. Normalized MSD values (POC) for individual compound treated wells were acquired by dividing background-subtracted assay signal by signal from vehicle control wells (cells + 0.1% DMSO) and multiplying by 100. This POC data was graphed using a nonlinear regression curve fit xy analysis and a log(inhibitor) vs response —variable slope (four parameter) model for dose response curves (Graphpad Prism 9, San Diego, CA, USA). To calculate area under the curve, all points on the curve were connected and vertical lines were drawn from each point down to y = 0, generating a series of trapezoids. The area of each trapezoid was determined using the equation A = (1/2)(h)(b1 + b2), where h = 1 (distance between points), b1 = POC of the first point and b2 = POC of the second point. The sum of all trapezoids provides an approximate area under the curve (AUC). For half-life (t1/2) determination in time course studies, a one-phase decay model was used for curve fitting and the time at which the curve crossed 50 POC was determined through interpolation (Graphpad Prism 9, San Diego, CA, USA). Additionally initial rate of degradation was determined by multiplying 100 with rate constant (τ = 0.693/t1/2).

Structure (SMILES) | α (cooperativity, KLP/KLPT) [1] | Kd [1] | Initial Degradation Rate (SMARCA2)
Cc1ncsc1-c1ccc([C@H](C)NC(=O)[C@@H]2C[C@@H](O)CN2C(=O)[C@@H](NC(=O)CCc2ccnc(N3CCN(c4cc(-c5ccccc5O)nnc4N)CC3)c2)C(C)(C)C)cc1 [Compound 8, (2S,4R)-1-((S)-2-(3-(2-(4-(3-Amino-6-(2-hydroxyphenyl)pyridazin-4-yl)piperazin-1-yl)pyridin-4-yl)propanamido)-3,3-dimethylbutanoyl)-4-hydroxy-N-((S)-1-(4-(4-methylthiazol-5-yl)phenyl)ethyl)pyrrolidine-2-carboxamide] | 0.26 | 27 ± 3 nM | 1.34 %/min
Cc1ncsc1-c1ccc([C@H](C)NC(=O)[C@@H]2C[C@@H](O)CN2C(=O)[C@@H](NC(=O)c2ccnc(N3CCN(c4cnnc(-c5ccccc5O)c4)CC3)c2)C(C)(C)C)cc1 [Compound 10, N-((S)-1-((2S,4R)-4-Hydroxy-2-(((S)-1-(4-(4-methylthiazol-5-yl)phenyl)ethyl)carbamoyl)pyrrolidin-1-yl)-3,3-dimethyl-1-oxobutan-2-yl)-2-(4-(6-(2-hydroxyphenyl)pyridazin-4-yl)piperazin-1-yl)isonicotinamide] | 0.24 | 250 ± 30 nM | 0.56 %/min
Cc1ncsc1-c1ccc([C@H](C)NC(=O)[C@@H]2C[C@@H](O)CN2C(=O)[C@@H](NC(=O)CN2CCN(c3cc(-c4ccccc4O)nnc3N)CC2)C(C)(C)C)cc1 [Compound 6, (2S,4R)-1-((S)-2-(2-(4-(3-Amino-6-(2-hydroxyphenyl)pyridazin-4-yl)piperazin-1-yl)acetamido)-3,3-dimethylbutanoyl)-4-hydroxy-N-((S)-1-(4-(4-methylthiazol-5-yl)phenyl)ethyl)pyrrolidine-2-carboxamide, reference compound] | 2 | 5.6 ± 2 nM | 3.5 %/min
Cc1ncsc1-c1ccc([C@H](C)NC(=O)[C@@H]2C[C@@H](O)CN2C(=O)[C@@H](NC(=O)c2cccc(N3CCN(c4cc(-c5ccccc5O)nnc4N)CC3)n2)C(C)(C)C)cc1 [Compound 2, 6-(4-(3-Amino-6-(2-hydroxyphenyl)pyridazin-4-yl)piperazin-1-yl)-N-((S)-1-((2S,4R)-4-hydroxy-2-(((S)-1-(4-(4-methylthiazol-5-yl)phenyl)ethyl)carbamoyl)pyrrolidin-1-yl)-3,3-dimethyl-1-oxobutan-2-yl)picolinamide] | 6.5 | 33 ± 4 nM | 2.02 %/min
Cc1ncsc1-c1ccc(CNC(=O)C2C[C@@H](O)CN2C(=O)C(NC(=O)C2(F)CC2)C(C)(C)C)c(OCCc2ccc(CN3CCN(c4cc(-c5ccccc5O)nnc4N)CC3)cc2)c1 (stereo in doubt) [Compound 11, (2R,4R)-N-(2-(4-((4-(3-amino-6-(2-hydroxyphenyl)pyridazin-4-yl)piperazin-1-yl)methyl)phenethoxy)-4-(4-methylthiazol-5-yl)benzyl)-1-((R)-2-(1-fluorocyclopropane-1-carboxamido)-3,3-dimethylbutanoyl)-4-hydroxypyrrolidine-2-carboxamide, reference compound] | 0.55 | 108 ± 14 nM | 0.25 %/min
Cc1ncsc1-c1ccc([C@H](C)NC(=O)[C@@H]2C[C@@H](O)CN2C(=O)[C@@H](NC(=O)Cc2ccnc(N3CCN(c4cc(-c5ccccc5O)nnc4N)CC3)c2)C(C)(C)C)cc1 [Compound 7, (2S,4R)-1-((S)-2-(2-(2-(4-(3-Amino-6-(2-hydroxyphenyl)pyridazin-4-yl)piperazin-1-yl)pyridin-4-yl)acetamido)-3,3-dimethylbutanoyl)-4-hydroxy-N-((S)-1-(4-(4-methylthiazol-5-yl)phenyl)ethyl)pyrrolidine-2-carboxamide] | 0.11 | 80 ± 6 nM | 0.78 %/min
Cc1ncsc1-c1ccc([C@H](C)NC(=O)[C@@H]2C[C@@H](O)CN2C(=O)[C@@H](NC(=O)c2cccc(N3CCN(c4cc(-c5ccccc5O)nnc4N)CC3)c2)C(C)(C)C)cc1 [Compound 4, (2S,4R)-1-((S)-2-(3-(4-(3-Amino-6-(2-hydroxyphenyl)pyridazin-4-yl)piperazin-1-yl)benzamido)-3,3-dimethylbutanoyl)-4-hydroxy-N-((S)-1-(4-(4-methylthiazol-5-yl)phenyl)ethyl)pyrrolidine-2-carboxamide] | 2.6 | 64 ± 7 nM | 2.06 %/min
Cc1ncsc1-c1ccc([C@H](C)NC(=O)[C@@H]2C[C@@H](O)CN2C(=O)[C@@H](NC(=O)c2ccnc(N3CCN(c4cc(-c5ccccc5O)nnc4N)CC3)c2)C(C)(C)C)cc1 [Compound 1, 2-(4-(3-Amino-6-(2-hydroxyphenyl)pyridazin-4-yl)piperazin-1-yl)-N-((S)-1-((2S,4R)-4-hydroxy-2-(((S)-1-(4-(4-methylthiazol-5-yl)phenyl)ethyl)carbamoyl)pyrrolidin-1-yl)-3,3-dimethyl-1-oxobutan-2-yl)isonicotinamide] | 12.8 | 4.7 ± 1 nM | 1.9 %/min
Cc1ncsc1-c1ccc([C@H](C)NC(=O)[C@@H]2C[C@@H](O)CN2C(=O)[C@@H](NC(=O)c2csc(N3CCN(c4cc(-c5ccccc5O)nnc4N)CC3)n2)C(C)(C)C)cc1 [Compound 5, 2-(4-(3-Amino-6-(2-hydroxyphenyl)pyridazin-4-yl)piperazin-1-yl)-N-((S)-1-((2S,4R)-4-hydroxy-2-(((S)-1-(4-(4-methylthiazol-5-yl)phenyl)ethyl)carbamoyl)pyrrolidin-1-yl)-3,3-dimethyl-1-oxobutan-2-yl)thiazole-4-carboxamide] | 1.8 | 46.8 ± 6.7 nM | 1.9 %/min
